The results in this text go back to ChEMBL document CHEMBL5518236, “Discovery of Clinical Candidate AZD5462, a Selective Oral Allosteric RXFP1 Agonist for Treatment of Heart Failure” (J Med Chem, 2024).

A short description of data set [1]: Metabolic stability in human liver microsomes assessed as intrinsic clearance at 1 uM measured upto 30 mins by LC-MS/MS analysis. Type of data set: ADME, Microsome. The following applies: read-out: CLH. (In general: Microsomes from liver hold many membrane-bound enzymes, among them those of drug oxidation.)
Data set [2] is described as follows: Metabolic stability in human hepatocytes assessed as unbound intrinsic clearance measured per 10^6 viable cells/ml at 1 uM measured upto 120 mins by LC-MS/MS analysis. Type of data set: ADME, cell-based, Hepatocyte. The conditions noted are these: 2 h.
A short description of data set [3]: Metabolic stability in human liver microsomes assessed as unbound intrinsic clearance at 1 uM measured upto 30 mins by LC-MS/MS analysis. Type of data set: ADME, Microsome. The following applies: 0.5 h.
The nature of data set [4]: Metabolic stability in human hepatocytes assessed as intrinsic clearance measured per 10^6 viable cells/ml at 1 uM measured upto 120 mins by LC-MS/MS analysis. The conditions noted are these: read-out: CLH. Type of data set: ADME, cell-based, Hepatocyte.
The nature of data set [5]: Octanol/water partition coefficient, logD of the compound at pH 7.4 by shake flask method. Type of data set: physicochemical.

SMILES strings stand for the structures. Some results are limits rather than exact numbers.

As for `COc1cc(Cl)c(O[C@H]2CC[C@@](C)(C(=O)O)CC2)cc1C(=O)N[C@@H]1[C@H]2CC[C@H](C2)[C@@H]1C(=O)NCC1(C)CCC1`, the microsomal CLint at 1 µM in data set [1] worked out at 36 µL/min/mg. Besides, the CL free in data set [2] came to 14 µL/min; in data set [3], 64 µL/min/mg. Also, in data set [4], the hepatocyte CLint at 1 µM turned out to be 4.8 µL/min/1e6 cells. For the same compound, in data set [5], the logD – broadly, the decadic logarithm of the distribution of all forms, ionised or not, between an organic phase and buffer at a given pH – worked out at 3.5.

Take `COc1cc(C#N)c(O[C@H]2CC[C@@](C)(C(=O)O)CC2)cc1C(=O)N[C@@H]1[C@H]2CC[C@H](C2)[C@@H]1C(=O)NCC1(C)CCC1`: in data set [1], the microsomal CLint at 1 µM came out at 20 µL/min/mg. In addition, the figures for the CL free in data set [2] and in data set [3] were 10 µL/min and 30 µL/min/mg, respectively. The hepatocyte CLint at 1 µM in data set [4] was 5.5 µL/min/1e6 cells. The compound further showed a logD in data set [5] of 2.85.

As to `COc1cc(F)c(O[C@H]2CC[C@@](C)(c3nnn[nH]3)CC2)cc1C(=O)N[C@@H]1[C@H]2CC[C@H](C2)[C@@H]1C(=O)NCC1(C)CCC1`, the microsomal CLint at 1 µM in data set [1] came out at 15 µL/min/mg. The figures for the CL free in data set [2] and in data set [3] were 13 µL/min and 29 µL/min/mg, respectively. The hepatocyte CLint at 1 µM in data set [4] was determined as 5.8 µL/min/1e6 cells. The same compound displayed a log distribution coefficient (logD) in data set [5] of 2.8.

Consider `CC1(CNC(=O)[C@H]2[C@@H]3CC[C@@H](C3)[C@H]2NC(=O)c2cc(O[C@H]3CC[C@@](C)(C(=O)O)CC3)c(F)cc2F)CCC1`, for which, in data set [1], the microsomal CLint at 1 µM is 37 µL/min/mg. In addition, the CL free came to 10 µL/min in data set [2] and 49 µL/min/mg in data set [3]. Besides, the hepatocyte CLint at 1 µM in data set [4] came to 6.7 µL/min/1e6 cells. In addition, the logD in data set [5] was 2.9.

With `COc1cc(F)c(O[C@H]2CC[C@@](C)(C(=O)O)CC2)cc1C(=O)N[C@@H]1[C@H]2CC[C@H](C2)[C@@H]1C(=O)N[C@H](C)C(C)(C)C`, the microsomal CLint at 1 µM in data set [1] came out at 33 µL/min/mg. Also, the CL free is 11 µL/min in data set [2] and 50 µL/min/mg in data set [3]. Further, the hepatocyte CLint at 1 µM in data set [4] was 5.9 µL/min/1e6 cells. This compound also came in with a logD in data set [5] of 3.4.

Consider `COc1cc(F)c(O[C@H]2CC[C@@](C)(C(=O)O)CC2)cc1C(=O)N[C@@H]1[C@H]2CC[C@H](C2)[C@@H]1C(=O)NCC(C)C`, for which, in data set [1], the microsomal CLint at 1 µM turned out to be 5.7 µL/min/mg. Besides, the values for the CL free in data set [2] and in data set [3] were below 1.4 µL/min and 7.6 µL/min/mg, respectively. Moreover, the hepatocyte CLint at 1 µM in data set [4] is below 1 µL/min/1e6 cells. The compound also had a log distribution coefficient (logD) in data set [5] of 2.6.

In the case of `COc1cc(S(C)(=O)=O)c(O[C@H]2CC[C@@](C)(C(=O)O)CC2)cc1C(=O)N[C@@H]1[C@H]2CC[C@H](C2)[C@@H]1C(=O)NCC1(C)CCC1`, the microsomal CLint at 1 µM in data set [1] is 11 µL/min/mg. For the same compound, the CL free in data set [2] was 1.7 µL/min; in data set [3], 14 µL/min/mg. Further, the hepatocyte CLint at 1 µM in data set [4] was determined as 1.2 µL/min/1e6 cells. In data set [5], the logD was found to be 1.9.

With `COc1cc(F)c(O[C@H]2C[C@@](C)(C(=O)O)C2)cc1C(=O)N[C@@H]1[C@H]2CC[C@H](C2)[C@@H]1C(=O)NCC1(C)CCC1`, the microsomal CLint at 1 µM in data set [1] stood at 7.6 µL/min/mg. Besides, the CL free in data set [2] was found to be 5.4 µL/min; in data set [3], 10 µL/min/mg. For the same compound, in data set [4], the hepatocyte CLint at 1 µM stood at 4.3 µL/min/1e6 cells. For the same compound, the logD in data set [5] was 2.

Regarding `COc1c(C)cc(O[C@H]2CC[C@@](C)(C(=O)O)CC2)cc1C(=O)N[C@@H]1[C@H]2CC[C@H](C2)[C@@H]1C(=O)NCC1(C)CCC1`, the microsomal CLint at 1 µM in data set [1] turned out to be 7 µL/min/mg. For the same compound, the CL free was found to be 8.9 µL/min in data set [2] and 10 µL/min/mg in data set [3]. Moreover, the hepatocyte CLint at 1 µM in data set [4] came out at 5.6 µL/min/1e6 cells. Besides, the logD in data set [5] turned out to be 2.9.

Take `COc1cc(C)c(O[C@H]2CC[C@@](C)(C(=O)O)CC2)cc1C(=O)N[C@@H]1[C@H]2CC[C@H](C2)[C@@H]1C(=O)NCC1(C)CCC1`: in data set [1], the microsomal CLint at 1 µM was found to be 38 µL/min/mg. Further, the CL free in data set [2] was 4.9 µL/min; in data set [3], 54 µL/min/mg. For the same compound, the hepatocyte CLint at 1 µM in data set [4] was found to be 3.1 µL/min/1e6 cells. The compound further returned a logD in data set [5] of 3.5.
